Experimental data: patent publication US9963433B2, “Anticancer drugs including the chemical structures of an androgen receptor ligand and a histone deacetylase inhibitor” (Wayne State University, priority 2016, dated 2018)

Legend:
[1] = system: HDACs from Hela cell nuclear extract; type: biochemical; conditions: HeLa cell nuclear extract; tested at 10 μM and 25 μM; FIG. 2B
Method: (§1) FIGS. 2A-2F show measurement of intrinsic and in situ HDACi activities. […] IC50 values were calculated from nonlinear regression plots using GraphPad Prism5 software. […] Recombinant HDAC6 was incubated with each drug at the indicated concentrations. IC50 values were calculated from nonlinear regression plots using GraphPad Prism5 software.
(§2) HDAC activity assay. In vitro HDAC inhibition was measured by using the HDAC fluorimetric assay/drug discovery Kit (Enzo Life Sciences, BML-AK500) and the HDAC6 fluorometric drug discovery kit (Enzo Life Sciences, BML-AK516) following the manufacturer's protocols and instructions. IC50 values were calculated from nonlinear […] plots using GraphPad Prism5 software.
(§3) HDAC1 and HDAC2 are enriched in nuclear extracts whereas HDAC6 is a cytosolic enzyme that is the principal modulator of the acetylation status of Hsp90. […] Again, TSA served as the positive control in FIG. 2D.

human recombinant HDAC6 = biological target: T1, human recombinant HDAC6 (Homo sapiens, UniProt Q9UBN7); test: HDAC6 fluorometric assay, recombinant enzyme; type: biochemical; conditions: tested at 10 μM and 25 μM; FIG. 2D
T1 construct: purchased Enzo Life Sciences BML-AK516
T1 sequence (Q9UBN7 1-1215): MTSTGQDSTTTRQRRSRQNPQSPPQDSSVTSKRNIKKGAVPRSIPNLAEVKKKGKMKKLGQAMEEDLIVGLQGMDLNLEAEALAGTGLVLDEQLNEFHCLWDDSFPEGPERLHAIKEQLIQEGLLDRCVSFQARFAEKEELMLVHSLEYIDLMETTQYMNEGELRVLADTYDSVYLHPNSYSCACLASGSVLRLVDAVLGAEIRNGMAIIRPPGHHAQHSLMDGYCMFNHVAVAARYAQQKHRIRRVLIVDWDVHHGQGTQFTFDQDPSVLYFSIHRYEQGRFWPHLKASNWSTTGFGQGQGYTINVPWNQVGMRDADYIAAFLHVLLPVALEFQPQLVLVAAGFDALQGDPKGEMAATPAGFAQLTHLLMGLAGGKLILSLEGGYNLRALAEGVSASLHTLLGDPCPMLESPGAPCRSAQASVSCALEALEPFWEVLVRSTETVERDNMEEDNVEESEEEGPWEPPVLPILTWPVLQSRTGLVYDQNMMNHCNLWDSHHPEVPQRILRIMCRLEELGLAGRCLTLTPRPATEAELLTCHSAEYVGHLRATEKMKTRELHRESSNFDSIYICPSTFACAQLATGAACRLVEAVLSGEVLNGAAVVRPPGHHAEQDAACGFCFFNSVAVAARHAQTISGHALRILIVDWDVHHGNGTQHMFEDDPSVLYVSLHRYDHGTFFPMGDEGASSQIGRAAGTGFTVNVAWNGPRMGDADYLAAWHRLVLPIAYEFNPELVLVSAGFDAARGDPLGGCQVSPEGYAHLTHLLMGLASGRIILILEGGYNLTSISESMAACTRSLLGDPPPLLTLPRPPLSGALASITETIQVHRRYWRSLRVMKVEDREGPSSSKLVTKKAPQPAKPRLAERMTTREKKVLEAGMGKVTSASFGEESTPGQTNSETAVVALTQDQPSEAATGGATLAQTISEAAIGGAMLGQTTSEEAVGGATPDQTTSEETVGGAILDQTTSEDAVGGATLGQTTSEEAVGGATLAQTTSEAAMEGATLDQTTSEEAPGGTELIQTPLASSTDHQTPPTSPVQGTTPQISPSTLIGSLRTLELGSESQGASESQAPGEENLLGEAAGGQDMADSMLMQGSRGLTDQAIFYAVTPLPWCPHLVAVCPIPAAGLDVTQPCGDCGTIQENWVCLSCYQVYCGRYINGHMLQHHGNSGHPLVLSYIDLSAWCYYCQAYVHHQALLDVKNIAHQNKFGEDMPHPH
Method: as §1, §2, §3

[2] = system: KLK3 mRNA (AR target gene) in C4-2 cells; test: Inhibition of R1881 activation of KLK3 mRNA in C4-2 cells; type: cell-based; conditions: hormone depleted 96 h, R1881 1 nM, compound 1-10 μM, 48 h, FIG. 3A
Method: (§4) Cell Culture and Reagents. LNCaP and 22Rv1 cell lines were from American Type Culture Collection (Manassas, Va.). C4-2 cells were kindly provided by Dr. Edwin Sanchez (University of Toledo). […] R1881 was kindly provided by Dr. Stephan Patrick (Karmanos Cancer Institute). All experiments were conducted using phenol-red free growth media.
(§5) RNA isolation, Reverse Transcription, and Real Time PCR. Total RNA was isolated from cells using the RNeasy Mini Kit (Qiagen). Reverse transcription PCR was then performed using 500 ng of total RNA with random primers and using the high-capacity complementary DNA Archive kit (Applied Biosystems). The complementary DNA from this reaction was measured using quantitative real time PCR using the StepONE Plus Real Time PCR system (Life Technologies Corporation, Carlsbad, Calif.). All reactions were performed in triplicate and normalized to glyceraldehyde-3-phosphate-dehydrogenase values in the same samples.

[3] = system: TMPRSS2 mRNA (AR target gene) in C4-2 cells; test: Inhibition of R1881 activation of TMPRSS2 mRNA in C4-2 cells; type: cell-based; conditions: hormone depleted 96 h, R1881 1 nM, compound 1-10 μM, 48 h, FIG. 3B
Method: as §4, §5

[4] = system: AR chromatin association at KLK3 ARE enhancer elements; test: ChIP of AR at KLK3 enhancer in C4-2 cells; conditions: compound 10 μM, R1881 1 nM or 10 nM, 2 h, FIG. 3C
Method: (3C) C4-2 cells plated in hormone-depleted medium were treated with either vehicle, R1881, or the indicated compound for 2 h. Cells were harvested and subjected to ChIP using AR antibody. Taqman probes targeting ARE enhancer elements associated with the KLK3 gene were used to quantify the immunoprecipitated chromatin.
Chromatin Immunoprecipitation (ChIP). […] The ChIP signals were measured by quantitative real time PCR analysis of the immunoprecipitated products.
As a target site for the ChIP assay, the well-established AR binding enhancer elements located 4 kb upstream of the transcription initiation site of the KLK3 gene was chosen.

Q: Which results are given for `COC(=O)CCCCCCNC(=O)c1ccc(N2C(=S)N(c3ccc(C#N)c(C(F)(F)F)c3)C(=O)C2(C)C)cc1F` [Compound 3-52, Methyl-7-(4-(3-(4-cyano-3-(trifluoromethyl)phenyl)-5,5-dimethyl-4-oxo-2-thioxoimidazolidin-1-yl)-2-fluorobenzamido)heptanoate]?
A: inhibition of nuclear HDAC activity [1]: did not inhibit nuclear HDAC activity even up to a concentration of 25 μM; inhibitory activity against HDAC6 (human recombinant HDAC6): did not show significant inhibitory activity; inhibition of activation of KLK3 by R1881 [2]: comparable to Enz; inhibition of activation of TMPRSS2 by R1881 [3]: comparable to Enz

Q: With `C[C@]1(O)CC[C@H]2[C@@H]3CCC4=CC(=O)CCC4=C3C=C[C@@]21C` [androgen, R1881] as the compound, how does the “chromatin association of AR (ChIP signal)” value [4] read?
A: strongly stimulated chromatin association of AR
